Results published in patent US6511975B1, “Spiropiperidine derivatives” (Sankyo Company, Limited, priority 1998, dated 2003).

Tests used:
Set-up in all cases: species or system guinea pig
Conditions in all cases: stated in words only
NK1 receptor = molecular target: T1, NK1 receptor (Cavia porcellus, UniProt P30547); assay: NK1 Receptor Binding Test ([3H]-substance P, crude pulmonary membrane specimens)
T1 construct: Crude pulmonary membrane specimens were prepared from the lungs of male Hartley guinea pigs; from tissue; host or cells: guinea pig lung (crude membranes)
Protocol: NK1 Receptor Binding Test
(a) Preparation of Crude Pulmonary Membrane Specimens
Crude pulmonary membrane specimens were prepared from the lungs of male Hartley guinea pigs. Namely, the animals were sacrificed by exsanguination from the abdominal aorta under chloroform anesthesia followed promptly by excision of lung and respiratory tract tissue.
After perfusing the excised lungs in buffer (1) (50 mM Tris-HCl, pH 7.4), the lungs were sliced into thin sections and then homogenized in a buffer (2) (buffer (1) containing 120 mM sodium chloride and 5 mM potassium chloride) using a Polytron.
(§1) The tissue mass was removed from the homogenate by passing through a Nylon mesh (50 μm) and separating by centrifugation (30,000×g, 30 minutes, 4° C.).
(§2) The pellet was re-suspended in an ice-cooled Buffer (3) (Buffer (1) containing 10 mM EDTA and 300 mM potassium chloride) and after allowing to stand undisturbed for 60 minutes at 4° C., the resulting suspension was centrifuged and washed twice (30,000×g, 15 minutes, 4° C.).
(§3) The crude membrane specimens were stored at −80° C. until the time of use.
(§4) (b) Receptor Binding Test […]
The filter containing the membrane component was transferred to a mini plastic vial containing 4 ml of Picoflow and radioactivity was measured with a liquid scintillation counter (Beckman, LCS3500).

NK2 receptor = molecular target: T2, NK2 receptor (Cavia porcellus, UniProt Q64077); assay: NK2 Receptor Binding Test ([3H]-SR-48968, crude ileal membrane specimens)
T2 construct: Crude membrane specimens were prepared from the ileum of male Hartley guinea pigs; from tissue; host or cells: guinea pig ileum (crude membranes)
T2 sequence (Q64077 1-402): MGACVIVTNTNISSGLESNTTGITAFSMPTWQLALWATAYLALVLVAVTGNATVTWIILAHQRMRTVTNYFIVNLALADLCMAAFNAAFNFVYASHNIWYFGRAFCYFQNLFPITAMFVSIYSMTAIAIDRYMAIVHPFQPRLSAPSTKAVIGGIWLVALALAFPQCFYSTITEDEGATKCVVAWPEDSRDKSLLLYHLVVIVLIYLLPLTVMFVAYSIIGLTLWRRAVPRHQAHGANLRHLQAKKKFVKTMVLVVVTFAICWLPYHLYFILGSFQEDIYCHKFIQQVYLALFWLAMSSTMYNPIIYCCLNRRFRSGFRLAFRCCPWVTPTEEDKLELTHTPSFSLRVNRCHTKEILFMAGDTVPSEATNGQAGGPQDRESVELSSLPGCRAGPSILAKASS
Protocol: NK2 Receptor Binding Test
(a) Preparation of Crude Ileal Membrane Specimens
Crude membrane specimens were prepared from the ileum of male Hartley guinea pigs. Namely, the animals were sacrificed by exsanguination from the abdominal aorta under chloroform anesthesia followed promptly by excision of the ileum.
The excised ileum was separated into its contents, secretions and epithelium by scraping with a slide glass. After slicing into thin sections in buffer (1) (50 mM Tris-HCl, pH 7.4), it was homogenized in buffer (2) (buffer (1) containing 120 mM sodium chloride and 5 mM potassium chloride) using a Polytron.
as §1, §2, §3, §4
The filter containing the membrane component was transferred to a mini plastic vial containing 4 ml of Picoflow and radioactivity was measured with a liquid scintillation counter (Beckman. LSC3500).

NK3 receptor = molecular target: T3, NK3 receptor (Cavia porcellus, UniProt P30098); assay: NK3 Receptor Binding Test ([3H]-senktide, crude cerebral membrane specimens)
T3 construct: Crude membrane specimens were prepared from the brain of male Hartley guinea pigs; from tissue; host or cells: guinea pig brain (crude membranes)
T3 sequence (P30098 1-440): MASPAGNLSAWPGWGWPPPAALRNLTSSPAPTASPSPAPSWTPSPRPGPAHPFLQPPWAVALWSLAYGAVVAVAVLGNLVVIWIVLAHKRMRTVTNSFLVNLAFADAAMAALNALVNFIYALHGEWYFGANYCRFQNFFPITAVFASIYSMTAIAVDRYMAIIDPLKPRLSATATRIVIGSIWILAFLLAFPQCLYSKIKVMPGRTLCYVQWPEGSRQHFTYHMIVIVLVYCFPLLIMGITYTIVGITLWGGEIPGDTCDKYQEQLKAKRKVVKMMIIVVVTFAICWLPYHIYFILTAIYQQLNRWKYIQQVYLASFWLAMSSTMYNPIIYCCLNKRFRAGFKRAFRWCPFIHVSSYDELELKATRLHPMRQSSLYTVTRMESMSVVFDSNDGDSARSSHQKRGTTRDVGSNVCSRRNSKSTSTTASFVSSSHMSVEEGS
Protocol: NK3 Receptor Binding Test
(a) Preparation of Crude Cerebral Membrane Specimens
Crude membrane specimens were prepared from the brain of male Hartley guinea pigs. Namely, the animals were sacrificed by exsanguination from the abdominal aorta under chloroform anesthesia After perfusing with Buffer (1) (50 mM Tris-HCl, pH 7.4) from the right ventricle, the brain was enucleated immediately. The excised brain was homogenized in buffer (2) (buffer (1) containing 120 mM sodium chloride and 5 mM potassium chloride) using a Polytron. Tissue mass was removed from the homogenate by passing through a Nylon mesh (50 μm) and separating by centrifugation (30,000×g, 30 minutes, 4° C.). […]
The filter containing the membrane component was transferred to a mini plastic vial containing 4 ml of Picoflow and radioactivity was measured with a liquid scintillation counter (Aloka, LSC 3500).
In order to determine the radioactivity due to non-specific binding of [^3H]-senktide (binding to sites other than the receptor, for example, the filter), the Experiment was carried out by adding an excess amount of senktide (final concentration: 10 μM), and the radioactivity was measured.
The inhibitory ratio of senktide-receptor binding due to a test compound was calculated by the following equation. […]
A: radioactivity due to nonspecific binding
B: radioactivity in the test without the addition of a test compound […]

T1 sequence (P30547 whole entry): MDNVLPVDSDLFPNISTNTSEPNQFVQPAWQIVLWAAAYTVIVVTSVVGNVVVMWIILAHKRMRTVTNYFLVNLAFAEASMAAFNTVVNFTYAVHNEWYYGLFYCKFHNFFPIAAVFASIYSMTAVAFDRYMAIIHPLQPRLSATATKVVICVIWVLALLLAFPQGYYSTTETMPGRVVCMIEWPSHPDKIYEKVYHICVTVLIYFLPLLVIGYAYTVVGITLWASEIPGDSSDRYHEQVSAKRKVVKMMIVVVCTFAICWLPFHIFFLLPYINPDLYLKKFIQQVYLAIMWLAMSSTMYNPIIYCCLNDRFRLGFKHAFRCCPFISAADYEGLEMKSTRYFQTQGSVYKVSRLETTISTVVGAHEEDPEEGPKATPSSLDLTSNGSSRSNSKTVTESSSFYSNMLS

COc1cc(C(=O)N2CCO[C@](CCN3CCC4(CC3)CC(O)c3ccccc34)(c3ccc(Cl)c(Cl)c3)C2)cc(OC)c1OC (stereo partly drawn) [Example 2, 1-{2-[(2R)-(3,4-Dichlorophenyl)-4-(3,4,5-trimethoxybenzoyl)mopholin-2-yl]ethyl}spiro[(3-hydroxy)indane-1,4′-piperidine]]
superior to those of Compound A: antagonistic activity against NK1 receptor (NK1 receptor) | antagonistic activity against NK2 receptor (NK2 receptor) | antagonistic activity against NK3 receptor (NK3 receptor)

COc1cc(C(=O)N2CCO[C@](CCN3CCC4(CC3)c3ccccc3CC4O)(c3ccc(Cl)c(Cl)c3)C2)cc(OC)c1OC (stereo partly drawn) [Example 1, 1-{2-[(2R)-(3,4-Dichlorophenyl)-4-(3,4,5-trimethoxybenzoyl)morpholin-2-yl]ethyl}spiro[(2-hydroxy)indane-1,4′-piperidine]]
superior to those of Compound A: antagonistic activity against NK1 receptor (NK1 receptor) | antagonistic activity against NK2 receptor (NK2 receptor) | antagonistic activity against NK3 receptor (NK3 receptor)
